Source: article PMC8658963, “Synthesis and Evaluation of Trypanocidal Activity of Chromane-Type Compounds and Acetophenones” (Molecules, 2021)
Read-outs that look alike come from different tables or passages of the source.

Columns and labels:
[1] = test system: intracellular amastigotes of T. cruzi (Tulahuen strain transfected with the β-galactosidase gene); assay: Anti-trypanosomal activity, β-galactosidase readout in infected U937 macrophages, 72 h; assay type: cell-based, Trypanosoma cruzi; conditions: for SI (index of selectivity, IS = LC50/EC50): LC50 in U937 cells divided by EC50 against T. cruzi; for Trypanocidal activity (grade) / Trypanocidal activity compared with the control drug BNZ: T. cruzi intracellular amastigotes; for Trypanocidal activity compared with the control drug BNZ: result in words
Experimental: This activity was carried out in intracellular amastigotes of T. cruzi (Tulahuen strain transfected with the β-galactosidase gene. Briefly, metacyclic trypomastigotes were cultured at 26 °C for ten days in a modified NNN (Novy−McNeal−Nicolle) medium. U937 cells were seeded in 96-well tissue culture plates at a density of 2.5 × 10^4 cells in 100 μL of complete RPMI-1640 medium/well and exposed for 24 h to phorbol myristate acetate (1 ng/mL) to induce transformation of monocytes into macrophages. Cells were infected with trypomastigotes (5 parasites per cell) and incubated for 24 h at 37 °C, 5% CO2. Wells were washed twice with warm phosphate buffer solution (PBS) to remove noninternalized parasites, and then were added 100 μL of complete RPMI-1640 medium and 100 μL of each concentration of compound (50, 12.5, 3.125 μM). BNZ, at the same concentrations, was used as internal control for trypanocidal activity (positive control), and nontreated cells as controls for infection (negative control). After 72 h of incubation 37 °C, 5% CO2, the viability of intracellular amastigotes was determined by measuring the β-galactosidase activity. For this, 100 μM of Chlorophenol red-β-D- galactopyranoside (CPRG), and 0.1% Nonidet P-40 was added to each well and incubated for 4 h at 37 °C, […] protected from light. After that, measurement β-galactosidase activity was measured at 570 nm on a Varioskan, Thermo spectrophotometer. Nonspecific absorbance was subtracted from the measurement. Infected cells exposed to benznidazole were used as controls for anti-trypanosomal activity. Determinations were done in triplicate with at least two independent experiments.

[2] = in vitro; conditions: human, Cytotoxicity (LC50)
Experimental: (§1) Cytotoxicity was evaluated in the human monocyte cell line U-937 (ATCC CRL-1593.2) at the exponential growth phase, adjusted at 1 × 10^5 cells/mL in complete RPMI-1640 medium (RPMI-1640 enriched with 200 mM L-glutamine, 10% inactivated fetal bovine serum (FBS) and 1% of a mixture of 10,000 IU/mL penicillin plus […] streptomycin). Then, in each well of a 96-well tissue culture plate were dispensed […] of cells plus […] of each compound (as one of six serials 1:2 dilution concentrations starting at 368 µM prepared in the same medium). Doxorubicin was included as an internal positive control under the same dilution pattern, starting at 18 µM whereas unexposed cells were used as negative controls. Afterward, cells were incubated for 72 h at 37 °C and 5% CO2. Cell viability was assayed by the MTT reduction assay according to the optical density (O.D) at 570 nm of the resulting reduction of formazan in a Varioskan Flash Multimode Reader (Thermo Scientific, Waltham, MA, USA). Nonspecific absorbance was corrected by subtracting the O.D of the blank solution that corresponded to complete RPMI-1640 medium. The assay was done in triplicate in at least two independent experiments.
(§2) The cytotoxicity was expressed as the medial lethal concentration (LC50), while the trypanocidal activity was defined as the median effective concentration (EC50) according to the percentage of inhibition of cells and parasites, respectively, as described elsewhere. Both LC50 and EC50 were calculated by the Probit analysis. […] Similarly, the trypanocidal activity was graded according to EC50 values, based on the hit criteria proposed by others into high when EC50 was lower than 10 μM, moderate when EC50 values were higher than 10 μM but lower than 50 μM and, low when EC50 was higher than 50 μM. The relation between cytotoxicity and trypanocidal activity was expressed as the index of selectivity (IS) that corresponded to the ratio when dividing the LC50 by the EC50.

[3] = test system: human monocyte cell line U-937 (ATCC CRL-1593.2); assay: Cytotoxic activity, MTT reduction assay, 72 h; conditions: for Cytotoxicity level (grade): U937 cells, graded by LC50; for CC50 / Cytotoxicity (LC50): human, 72 h
Experimental: as §1, §2

[4] = Trypanosoma cruzi, TULAHUEN, U-937, 72 h, intracellular amastigotes of T. cruzi Tulahuen in U937 macrophages, 72 h, average ± SD (SEM), read-out: Trypanocidal Activity (EC50)
[5] = Trypanosoma cruzi, TULAHUEN, U-937, T. cruzi intracellular amastigotes, graded by EC50, read-out: Trypanocidal activity (grade)
[6] = Trypanosoma cruzi, TULAHUEN, U-937, 72 h, read-out: Trypanocidal Activity (EC50), intracellular amastigotes of T. cruzi Tulahuen in U937 macrophages, 72 h, average ± SD (SEM)
[7] = read-out: Trypanocidal Activity (EC50), intracellular amastigotes of T. cruzi Tulahuen in U937 macrophages, 72 h, average ± SD (SEM)
[8] = Trypanosoma cruzi, TULAHUEN, U-937, read-out: Trypanocidal activity (grade), T. cruzi intracellular amastigotes, graded by EC50

Structure (SMILES)	SI (index of selectivity, IS = LC50/EC50) [1]	EC50 [1, 4]	CC50 at 72 h [2]	EC50 [1, 6]	Trypanocidal activity compared with the control drug BNZ [1]	other results
CC(=O)c1c(O)cc(O)cc1O [Compound 9, 1-(2,4,6-Trihydroxyphenyl)ethan-1-one]	>4.1	49.3 ± 9 µM	> 200 µM			EC50 [1, 5]: 10 to 50 µM
CC(=O)c1ccc(O)cc1O [Compound 5, 1-(2,4-Dihydroxyphenyl)ethan-1-one]	3.0	17.8 ± 0.8 µM	54 ± 0.5 µM			
CC(C)=CCc1cc2c(=O)ccoc2cc1O [Compound 23, 7-Hydroxy-6-(3-methylbut-2-en-1-yl)-4H-chromen-4-one]	>10		> 200 µM	> 20 µM		
CC(C)=CCc1c(O)ccc2c(=O)ccoc12 [Compound 24, 7-Hydroxy-8-(3-methylbut-2-en-1-yl)-4H-chromen-4-one]	>0.9		> 100 µM	111 ± 18.5 µM		Trypanocidal activity (grade) ([1]; graded by EC50): very low
COCOc1cc2oc(-c3ccc(Cl)cc3)cc(=O)c2cc1CC=C(C)C [Compound 30, 2-(4-Chlorophenyl)-7-(methoxymethoxy)-6-(3-methylbut-2-en-1-yl)-4H-chromen-4-one]	<2		27.2 ± 3.3 µM	> 13.6 µM	much better trypanocidal activity than the control drug BNZ	
COc1cccc2c1C(=O)c1c(O)c3c(c(O)c1C2=O)C[C@@](O)(C(=O)CO)C[C@@H]3O[C@H]1C[C@H](N)[C@H](O)[C@H](C)O1 [DOX, doxorubicin, reference compound]			0.5 µM			
COCOc1cc(O)c(C(=O)C=Cc2ccc(Cl)cc2)cc1CC=C(C)C [Compound 28, 3-(4-Chlorophenyl)-1-(2-hydroxy-4-(methoxymethoxy)-5-(3-methylbut-2-en-1-yl)phenyl)prop-2-en-1-one]	<2			> 0.3 µM	much better trypanocidal activity than the control drug BNZ	Cytotoxicity level (grade) [3]: high (high when LC50 values were lower than 50 μM)
CC(=O)c1ccc(O)c(O)c1O [Compound 8, 1-(2,3,4-Trihydroxyphenyl)ethan-1-one]	>10.9	18.3 ± 1.1 µM	> 200 µM		much better trypanocidal activity than the control drug BNZ	EC50 [1, 5]: 10 to 50 µM
CC(=O)c1c(O)ccc(CC=C(C)C)c1O [Compound 16, 1-(2,6-Dihydroxy-3-(3-methylbut-2-en-1-yl)phenyl)ethan-1-one]	<2		< 10 µM	> 4 µM		Cytotoxicity level (grade) [3]: high (high when LC50 values were lower than 50 μM); CC50 [3]: 7.8 ± 3.1 µM
O=c1ccoc2c(O)c(O)ccc12 [Compound 13, 7,8-Dihydroxy-4H-chromen-4-one]	0.3	154 ± 26.8 µM	43 ± 0.9 µM			Trypanocidal activity (grade) ([1]; graded by EC50): very low
CC(C)=CCc1cc2c(=O)ccoc2c(O)c1O [Compound 26, 7,8-Dihydroxy-6-(3-methylbut-2-en-1-yl)-4H-chromen-4-one]	4.59			< 10 µM	much better trypanocidal activity than the control drug BNZ	EC50 [1, 7]: 10.3 µM; Cytotoxicity (LC50) [3]: >200 µM
O=c1ccoc2ccc(O)cc12 [Compound 11, 6-Hydroxy-4H-chromen-4-one]	2.4	11.8 ± 0.3 µM	28 ± 1.9 µM		much better trypanocidal activity than the control drug BNZ	EC50 [1, 5]: 10 to 50 µM
O=c1ccoc2cc(O)ccc12 [Compound 10, 7-Hydroxy-4H-chromen-4-one]	<2	> 11.7 µM	23.4 ± 6.4 µM			
CC(=O)c1ccc(O)c(CC=C(C)C)c1O [Compound 15, 1-(2,4-Dihydroxy-3-(3-methylbut-2-en-1-yl)phenyl)ethan-1-one]	1.2		25.2 ± 4.6 µM	20.7 ± 1.1 µM		EC50 [1, 8]: 10 to 50 µM
O=C(Cn1ccnc1[N+](=O)[O-])NCc1ccccc1 [BNZ, benznidazole, reference compound]		56.5 ± 1.5 µM	> 768 µM			EC50 [1, 5]: 10 to 50 µM; Cytotoxicity level (grade) [3]: no cytotoxicity
CC(=O)c1cc(CC=C(C)C)c(O)cc1O [Compound 14, 1-(2,4-Dihydroxy-5-(3-methylbut-2-en-1-yl)phenyl)ethan-1-one]	<2		34 ± 4.9 µM	> 17 µM		
CC(=O)c1cc(CC=C(C)C)c(O)c(O)c1O [Compound 18, 1-(2,3,4-Trihydroxy-5-(3-methylbut-2-en-1-yl)phenyl)ethan-1-one]			< 10 µM			Cytotoxicity level (grade) [3]: high (high when LC50 values were lower than 50 μM); CC50 [3]: 5 ± 1.7 µM
COCOc1cc2oc(-c3ccc(OC)cc3)cc(=O)c2cc1CC=C(C)C [Compound 29, 7-(Methoxymethoxy)-2-(4-methoxyphenyl)-6-(3-methylbut-2-en-1-yl)-4H-chromen-4-one]	<2		17 ± 0.2 µM	> 9.8 µM	much better trypanocidal activity than the control drug BNZ	
CC(=O)c1c(O)cccc1O [Compound 7, 1-(2,6-Dihydroxyphenyl)ethan-1-one]	1.5	< 10 µM	10.5 ± 0.6 µM		much better trypanocidal activity than the control drug BNZ	EC50 ([1]; intracellular amastigotes of T. cruzi Tulahuen in U937 macrophages, 72 h, average ± SD (SEM), read-out: Trypanocidal Activity (EC50)): 10.5 ± 0.6 µM; CC50 [3]: 15.3 ± 1.9 µM
CC(=O)c1c(O)cc(O)c(CC=C(C)C)c1O [Compound 17, 1-(2,4,6-Trihydroxy-3-(3-methylbut-2-en-1-yl)phenyl)ethan-1-one]	2.8		21.2 ± 6.9 µM	< 10 µM		EC50 [1, 7]: 7.5 µM
O=c1ccoc2cccc(O)c12 [Compound 12, 5-Hydroxy-4H-chromen-4-one]	>5.0	19.9 ± 1.3 µM	> 100 µM		much better trypanocidal activity than the control drug BNZ	EC50 [1, 5]: 10 to 50 µM
COCOc1cc(O)c(C(=O)C=Cc2ccc(OC)cc2)cc1CC=C(C)C [Compound 27, 1-(2-Hydroxy-4-(methoxymethoxy)-5-(3-methylbut-2-en-1-yl)phenyl)-3-(4-methoxyphenyl)prop-2-en-1-one]	1.2		43.4 ± 7.3 µM	35.3 ± 1.1 µM		EC50 [1, 8]: 10 to 50 µM
CC(C)=CCc1ccc2occc(=O)c2c1O [Compound 25, 5-Hydroxy-6-(3-methylbut-2-en-1-yl)-4H-chromen-4-one]	>5.8			17.3 ± 0.4 µM	much better trypanocidal activity than the control drug BNZ	EC50 [1, 8]: 10 to 50 µM; Cytotoxicity (LC50) [3]: 47.1 ± 5.5 µM
